Assay results published in PubChem BioAssay AID256 (DTP/NCI, 2004).
“And” between values parts separate entries of the source, which are not always exact repeats. Identical values can stand only once. Inconclusive results and toxic doses are left out.

System: CD2F1 mice, L1210 leukemia ip, survival T/C
Assay: NCI In Vivo Anticancer Drug Screen. Data for tumor model L1210 Leukemia (intraperitoneal) in CD2F1 (CDF1) mice
Conditions: higher = longer survival
Summary of the method: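 Read-out first: treated-group measurement over vehicle-control measurement, expressed as a ratio. Animals bore a transplanted tumor line and were dosed with compound or vehicle.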

[1] = endpoint: mean survival time, dose: 25.0 mg/kg/injection, schedule: Q01DX009 (ip), vehicle: saline with Tween-80
[2] = endpoint: mean survival time, dose: 50.0 mg/kg/injection, schedule: Q01DX009 (ip), vehicle: saline with Tween-80
[3] = endpoint: mean survival time, dose: 100.0 mg/kg/injection, schedule: Q04DX003 (ip), vehicle: saline with Tween-80
[4] = endpoint: mean survival time, dose: 200.0 mg/kg/injection, schedule: Q04DX003 (ip), vehicle: saline with Tween-80
[5] = endpoint: mean survival time, dose: 100.0 mg/kg/injection, schedule: Q01DX001 (ip), vehicle: saline with Tween-80
[6] = endpoint: mean survival time, dose: 200.0 mg/kg/injection, schedule: Q01DX001 (ip), vehicle: saline with Tween-80
[7] = endpoint: mean survival time, dose: 400.0 mg/kg/injection, schedule: Q01DX001 (ip), vehicle: saline with Tween-80
[8] = endpoint: mean survival time, dose: 100.0 mg/kg/injection, schedule: Q01DX009 (ip), vehicle: saline with Tween-80
[9] = endpoint: mean survival time, dose: 50.0 mg/kg/injection, schedule: Q01DX001 (ip), vehicle: saline with Tween-80
[10] = endpoint: mean survival time, dose: 200.0 mg/kg/injection, schedule: Q01DX009 (ip), vehicle: saline with Tween-80
[11] = endpoint: mean survival time, dose: 400.0 mg/kg/injection, schedule: Q01DX009 (ip), vehicle: saline with Tween-80
[12] = endpoint: mean survival time, dose: 400.0 mg/kg/injection, schedule: Q04DX003 (ip), vehicle: saline with Tween-80

CC1(C)C(O)C(C)(C)C1O (stereo not given)
T/C [1]: 93 % of control | T/C [2]: 98 % of control | T/C [3]: 97 % of control

[N-]=[N+]=CC(=O)c1c(Cl)n(-c2ccccc2)c2ccccc12
T/C (endpoint: mean survival time, dose: 50.0 mg/kg/injection, schedule: Q04DX003 (ip), vehicle: saline with Tween-80): 90 % of control | T/C [3]: 98 % of control | T/C [4]: 101 % of control

c1ccc2nc3c(nc2c1)[nH]c1ccccc13
T/C [5]: 100 % of control | T/C [6]: 92 % of control | T/C [7]: 89 % of control

NS(=O)(=O)OCCCCCCCOS(N)(=O)=O
T/C (endpoint: median survival time, dose: 12.5 mg/kg/injection, schedule: Q01DX009 (ip), vehicle: saline with Tween-80): 114 % of control and 116 % of control and 110 % of control

CC1=CC(C(=O)O)P(C)(=O)C1 (stereo not given)
T/C [1]: 101 % of control | T/C (endpoint: mean survival time, dose: 25.0 mg/kg/injection, schedule: Q04DX002 (ip), vehicle: saline with Tween-80): 100 % of control | T/C [2]: 101 % of control | T/C (endpoint: mean survival time, dose: 50.0 mg/kg/injection, schedule: Q04DX002 (ip), vehicle: saline with Tween-80): 91 % of control | T/C [8]: 104 % of control | T/C (endpoint: mean survival time, dose: 100.0 mg/kg/injection, schedule: Q04DX002 (ip), vehicle: saline with Tween-80): 95 % of control

CC1=C(C)C(=O)C(SC2CC(=O)OC2=O)=C(C)C1=O (stereo not given)
T/C (endpoint: mean survival time, dose: 25.0 mg/kg/injection, schedule: Q01DX001 (ip), vehicle: saline with Tween-80): 108 % of control | T/C [9]: 96 % of control | T/C [5]: 104 % of control

CCSC#N
T/C (endpoint: mean survival time, dose: 2.5 mg/kg/injection, schedule: Q01DX009 (ip), vehicle: Klucel (hydroxypropylcellulose) (HPC)): 98 % of control | T/C (endpoint: mean survival time, dose: 5.0 mg/kg/injection, schedule: Q01DX009 (ip), vehicle: Klucel (hydroxypropylcellulose) (HPC)): 102 % of control | T/C (endpoint: mean survival time, dose: 10.0 mg/kg/injection, schedule: Q01DX009 (ip), vehicle: Klucel (hydroxypropylcellulose) (HPC)): 102 % of control

O=C(N1CCOCC1)C1(c2ccccc2)CCNCC1
T/C (endpoint: mean survival time, dose: 50.0 mg/kg/injection, schedule: Q01DX009 (ip), vehicle: saline): 93 % of control | T/C (endpoint: mean survival time, dose: 100.0 mg/kg/injection, schedule: Q01DX009 (ip), vehicle: saline): 104 % of control

O=C(NC/C=C/Br)NC1CCCc2ccccc21 (stereo not given)
T/C (endpoint: mean survival time, dose: 100.0 mg/kg/injection, schedule: Q04DX003 (ip), vehicle: other): 96 % of control | T/C (endpoint: mean survival time, dose: 200.0 mg/kg/injection, schedule: Q04DX003 (ip), vehicle: other): 102 % of control | T/C (endpoint: mean survival time, dose: 400.0 mg/kg/injection, schedule: Q04DX003 (ip), vehicle: other): 96 % of control

C1OC1CO[C@@H]1CO[C@H]2[C@@H]1OC[C@H]2OCC1CO1 (stereo not given in full)
T/C (endpoint: mean survival time, dose: 12.5 mg/kg/injection, schedule: Q01DX009 (ip), vehicle: suspension in saline): 100 % of control

Cc1c(Cl)c(C)c(Cl)c(O)c1Cl
T/C [8]: 96 % of control | T/C [10]: 100 % of control | T/C [11]: 87 % of control

CC(=O)Oc1ccc[nH]c1=O
T/C (endpoint: mean survival time, dose: 400.0 mg/kg/injection, schedule: Q01DX009 (ip), vehicle: saline): 150 % of control and 156 % of control | T/C (endpoint: mean survival time, dose: 600.0 mg/kg/injection, schedule: Q01DX009 (ip), vehicle: saline): 100 % of control and 108 % of control | T/C (endpoint: median survival time, dose: 16.7 mg/kg/injection, schedule: Q03HX027 (ip), vehicle: saline with Tween-80): 103 % of control | T/C (endpoint: median survival time, dose: 33.0 mg/kg/injection, schedule: Q03HX027 (ip), vehicle: saline with Tween-80): 91 % of control and 102 % of control | T/C (endpoint: median survival time, dose: 50.0 mg/kg/injection, schedule: Q01DX009 (ip), vehicle: saline with Tween-80): 100 % of control and 101 % of control | T/C (endpoint: median survival time, dose: 66.7 mg/kg/injection, schedule: Q03HX027 (ip), vehicle: saline with Tween-80): 91 % of control and 93 % of control and 103 % of control | T/C (endpoint: median survival time, dose: 100.0 mg/kg/injection, schedule: Q01DX009 (ip), vehicle: saline with Tween-80): 100 % of control and 102 % of control and 103 % of control | T/C (endpoint: median survival time, dose: 133.0 mg/kg/injection, schedule: Q03HX027 (ip), vehicle: saline with Tween-80): 102 % of control and 103 % of control and 106 % of control | T/C (endpoint: median survival time, dose: 200.0 mg/kg/injection, schedule: Q01DX009 (ip), vehicle: saline with Tween-80): 103 % of control (2×) and 111 % of control | T/C (endpoint: median survival time, dose: 266.0 mg/kg/injection, schedule: Q03HX027 (ip), vehicle: saline with Tween-80): 185 % of control

CCOC(=N)c1ccccc1
T/C [5]: 94 % of control | T/C (endpoint: mean survival time, dose: 100.0 mg/kg/injection, schedule: Q04DX003 (ip), vehicle: Klucel (hydroxypropylcellulose) (HPC)): 103 % of control | T/C [6]: 97 % of control | T/C (endpoint: mean survival time, dose: 200.0 mg/kg/injection, schedule: Q04DX003 (ip), vehicle: Klucel (hydroxypropylcellulose) (HPC)): 101 % of control | T/C [7]: 102 % of control | T/C (endpoint: mean survival time, dose: 400.0 mg/kg/injection, schedule: Q04DX003 (ip), vehicle: Klucel (hydroxypropylcellulose) (HPC)): 105 % of control

OC(c1ccccc1)(c1ccccc1)c1ccccc1 (tested in a mixture with another compound)
T/C [3]: 98 % of control | T/C [4]: 91 % of control | T/C [12]: 97 % of control

CCOC(=O)CN1CCC(C2(c3cc4ccccc4[nH]3)OCCO2)CC1
T/C [5]: 102 % of control | T/C [6]: 102 % of control | T/C [7]: 102 % of control

CSc1ccc(SC)nn1
T/C [8]: 102 % of control | T/C [10]: 96 % of control | T/C [11]: 91 % of control

CC(CO)CCC(=O)C(C)C1C(=O)CC2[C@H]3CC=C4C[C@H](O)CC[C@@]4(C)C3CC[C@@]12C (stereo not given in full)
T/C [9]: 94 % of control | T/C [5]: 97 % of control | T/C [6]: 95 % of control

CCCCOC(=O)/C=C\C(=O)OC(C)C(=O)OCCCC (stereo not given)
T/C (endpoint: median survival time, dose: 50.0 mg/kg/injection, schedule: Q04DX002 (ip), vehicle: saline with Tween-80): 100 % of control | T/C (endpoint: median survival time, dose: 100.0 mg/kg/injection, schedule: Q04DX002 (ip), vehicle: saline with Tween-80): 100 % of control | T/C (endpoint: median survival time, dose: 200.0 mg/kg/injection, schedule: Q04DX002 (ip), vehicle: saline with Tween-80): 100 % of control | T/C (endpoint: median survival time, dose: 400.0 mg/kg/injection, schedule: Q04DX002 (ip), vehicle: saline with Tween-80): 88 % of control

O=C1NC(c2ccccc2)N=C2Oc3ccccc3C=C12 (stereo not given)
T/C (endpoint: mean survival time, dose: 1.56 mg/kg/injection, schedule: Q01DX009 (ip), vehicle: saline with Tween-80): 103 % of control | T/C (endpoint: mean survival time, dose: 3.12 mg/kg/injection, schedule: Q01DX009 (ip), vehicle: saline with Tween-80): 94 % of control and 97 % of control and 98 % of control | T/C (endpoint: mean survival time, dose: 6.25 mg/kg/injection, schedule: Q01DX009 (ip), vehicle: saline with Tween-80): 100 % of control (2×) and 103 % of control | T/C [8]: 92 % of control

Nc1nc2c(c(=O)[nH]1)N1CCN(c3ccc(C(=O)NC(CCC(=O)O)C(=O)O)cc3)CC1CN2 (stereo not given)
T/C (endpoint: mean survival time, dose: 100.0 mg/kg/injection, schedule: Q01DX001 (ip), vehicle: sodium bicarbonate): 100 % of control | T/C (endpoint: mean survival time, dose: 200.0 mg/kg/injection, schedule: Q01DX001 (ip), vehicle: sodium bicarbonate): 100 % of control | T/C (endpoint: mean survival time, dose: 400.0 mg/kg/injection, schedule: Q01DX001 (ip), vehicle: sodium bicarbonate): 86 % of control

C(=C(c1ccccc1)c1ccccc1)=C(c1ccccc1)c1ccccc1
T/C [8]: 93 % of control | T/C [3]: 100 % of control | T/C [10]: 90 % of control | T/C [4]: 97 % of control | T/C [11]: 90 % of control | T/C [12]: 95 % of control

O=C1Cc2ccccc2CO1
T/C [3]: 97 % of control | T/C [4]: 94 % of control | T/C [12]: 105 % of control

NCCCC(N)(C(=O)O)C(F)F (stereo not given)
T/C (endpoint: median survival time, dose: 50.0 mg/kg/injection, schedule: Q01DX009 (ip), vehicle: distilled water + alcohol): 102 % of control | T/C (endpoint: median survival time, dose: 100.0 mg/kg/injection, schedule: Q01DX009 (ip), vehicle: distilled water + alcohol): 102 % of control | T/C (endpoint: median survival time, dose: 200.0 mg/kg/injection, schedule: Q01DX009 (ip), vehicle: distilled water + alcohol): 105 % of control | T/C (endpoint: median survival time, dose: 400.0 mg/kg/injection, schedule: Q01DX009 (ip), vehicle: distilled water + alcohol): 113 % of control | T/C (endpoint: median survival time, dose: 800.0 mg/kg/injection, schedule: Q01DX009 (ip), vehicle: distilled water + alcohol): 103 % of control | T/C (endpoint: median survival time, dose: 1.0 % drug in feed or water or air, schedule: Q#C X 1 (adlb), vehicle: water): 103 % of control | T/C (endpoint: median survival time, dose: 3.0 % drug in feed or water or air, schedule: Q#C X 1 (adlb), vehicle: water): 116 % of control

FC(F)(F)c1[nH]nc(-c2ccc(Cl)cc2)c1N=NN1CCOCC1
T/C (endpoint: mean survival time, dose: 75.0 mg/kg/injection, schedule: Q01DX001 (ip), vehicle: other): 91 % of control | T/C (endpoint: mean survival time, dose: 150.0 mg/kg/injection, schedule: Q01DX001 (ip), vehicle: other): 95 % of control

O=C1NC(=O)C(c2ccccc2)(C2CCC2)N1 (stereo not given)
T/C [3]: 95 % of control | T/C [12]: 88 % of control
